Experimental data from patent publication EP2450458B1, “Novel microorganisms producing a thermostable lipase and their use” (Universiti Putra Malaysia (UPM), priority 2010, dated 2012).
Several values for one entry are separate records, joined by “and”; a condition that tells them apart may be missing. Identical values can stand only once.

Experiments:
[1] = tested on: purified recombinant ARM thermostable lipase; experiment: Lipase organic solvent-stability; type: biochemical, Geobacillus sp. strain ARM; settings: solvent 30% v/v, 30 min at 30°C, 150 rpm; assay at 65°C
Protocol: Aliquots of the enzyme were incubated with the solvents (30%, v/v) for 30 min at 30°C with shaking at 150 rpm. […] The stability was expressed as the remaining lipolytic activity relative to that of the control (without solvent). The relative activity was measured at 65°C as described before.

[2] = tested on: purified recombinant ARM thermostable lipase; experiment: Effect of surfactants on lipase activity; type: biochemical, Geobacillus sp. strain ARM; settings: pre-incubation 30 min at 30°C, assay at 65°C
Protocol: The effect of surfactants on the lipase activity was investigated by pre-incubating the purified enzyme for 30 min at 30°C in Tris-HCl buffer (50 mM, pH 8.0) containing 0.1 and 1% (v/v) of following surfactants (nonionic surfactants): Tween 20, Tween 40, Tween 80, Tween 85, Triton X-100, Triton B1958, Span 20. In the case of SDS (ionic surfactant) concentrations were 1 and 5 mM. The control contained no surfactant. The relative activity was measured at 65°C using olive oil (emulsified, 1:1 v/v, in 50 mM Tris-HCl buffer, pH 8.0) as substrate. The effects of various surfactants on the purified ARM lipase are depicted in Figure 30.

[3] = tested on: purified recombinant ARM thermostable lipase; experiment: Effect of ionic liquids on lipase thermostability at 60°C; type: biochemical, Geobacillus sp. strain ARM; settings: 90% (v/v) ionic liquid, 0-90 min at 60°C, 150 rpm; assay at 65°C
Protocol: (§1) Aliquots of the enzyme were suspended in 90% (v/v) of four different ionic liquids (ILs) properly. Then, the mixture of lipase and ILs was incubated for 0-90 min at 60°C with shaking at 150 rpm. The selected ILs were [Emim][BF4], [Emim][TfO], [Bmim][BF4] and […]. The thermostability was expressed as the remaining lipolytic activity relative to that of the control (without ILs) after incubation at high temperature. The residual activity was measured at 65°C as described before.

[4] = tested on: purified recombinant ARM thermostable lipase; experiment: Effect of ionic liquids on lipase hydrolytic activity; type: biochemical, Geobacillus sp. strain ARM; settings: 90% (v/v) ionic liquid, 0 min, without incubation; assay at 65°C
Protocol: as §1

[5] = values in parenthesis used to select the solvents; cited from earlier work
[6] = tested on: purified recombinant ARM thermostable lipase; experiment: Effect of metal ions on lipase activity; type: biochemical, Geobacillus sp. strain ARM; settings: pre-incubation 30 min at 30°C, assay at 65°C
Protocol: To determine the effects of metal ions on the lipase activity, the purified enzyme was pre-incubated for 30 min at 30°C with various metal ions. Two concentrations (1 and 5 mM) of each of the following ions were used: CO^2+, CU^2+, Mg^2+, Ni^2+, Mn^2+, Zn^2+ Fe^2+, Ca^2+, Sr^2+, K^+, Na^+, Rb^+ and Ag^+. All salts were dissolved in MOPS buffer (50 mM, pH 8.0) (Aslamkhan et al., 2002). The control contained no ion. The relative activity was measured at 65°C using olive oil (emulsified, 1:1 v/v, in 50 mM Tris-HCl buffer, pH 8.0) as substrate. Metal cations play different and important roles in influencing the structure and function of lipases (Gupta et al.., 2004a; Kim et al., 2005). The effect of different metal ions on the purified ARM lipase activity was studied (Figure 29). […] The Ca^2+-binding motif was not found in ARM lipase sequence.

[7] = tested on: purified recombinant ARM thermostable lipase; experiment: Effect of inhibitors on lipase activity; type: biochemical, Geobacillus sp. strain ARM; settings: pre-incubation 30 min at 30°C, assay at 65°C
Protocol: The control contained no inhibitor. The relative activity was measured at 65°C using olive oil (emulsified, 1:1 v/v, in 50 mM Tris-HCl buffer, pH 8.0) as substrate.

1-propanol
effect on lipase activity/stability [1]: dramatically inhibited

CCCCCCCCCCCCOS(=O)(=O)[O-].[Na+] [SDS]
effect on lipase activity ([2]; 1 and 5 mM (ionic surfactant)): strongly inhibited

CCn1cc[n+](C)c1.O=S(=O)([O-])C(F)(F)F [[Emim][TfO]]
effect on lipase thermostability [3]: significant effects on lipase thermostability enhancement | lipase activity relative to the control (without ILs) [4]: up to 120%

CCCCCCCCCCCCCCC [n-pentadecane]
remaining lipolytic activity relative to the control (without solvent) [1]: more than 100% | log P [5]: 7.71

CCn1cc[n+](C)c1.F[B-](F)(F)F [[Emim][BF4]]
effect on lipase thermostability [3]: significant effects on lipase thermostability enhancement | effect on lipase activity [4]: no significant effect

Span 20
effect on lipase activity ([2]; 0.1 and 1% (v/v) surfactant): not affected

CC(C)=O [acetone]
effect on lipase activity/stability [1]: dramatically inhibited | log P [5]: -0.208

CCCCCCCCCCCO [1-undecanol]
remaining lipolytic activity relative to the control (without solvent) [1]: 74% | log P [5]: 4.6

CCCCCCCCCCO [1-decanol]
remaining lipolytic activity relative to the control (without solvent) [1]: 86%

C[S+](C)[O-] [DMSO]
remaining lipolytic activity relative to the control (without solvent) [1]: 62.5% and 62.4%

Triton X-100
increase in lipase activity ([2]; 1% surfactant): 20%

CC(O)C(C)O (stereo not shown) [2,3-butanediol]
log P [5]: -0.92

CC(C)CC(C)(C)C [iso-octane]
remaining lipolytic activity relative to the control (without solvent) [1]: more than 100% | log P [5]: 4.5

CCCCCCC [heptan]
remaining lipolytic activity relative to the control (without solvent) [1]: more than 100% | log P [5]: 4.4

c1ccccc1 [benzene]
remaining lipolytic activity relative to the control (without solvent) [1]: more than 100%

CCc1ccccc1 [ethylbenzene]
remaining lipolytic activity relative to the control (without solvent) [1]: 77% | log P [5]: 3.3

CCCCn1cc[n+](C)c1.F[B-](F)(F)F [[Bmim][BF4]]
effect on lipase activity [4]: decreased lipase activity

CCCCCCCCO [1-octanol]
remaining lipolytic activity relative to the control (without solvent) [1]: more than 100% | log P [5]: 2.9

CC(C)CO [iso-butanol]
effect on lipase activity/stability [1]: dramatically inhibited | log P [5]: 0.79

OCc1ccccc1 [bnzyl alcohol]
effect on lipase activity/stability [1]: dramatically inhibited

1-butanol
effect on lipase activity/stability [1]: dramatically inhibited

hexanes
remaining lipolytic activity relative to the control (without solvent) [1]: more than 100% | log P [5]: 3.6

CC(C)O [2-propanol]
effect on lipase activity/stability [1]: dramatically inhibited

Cc1ccccc1 [toluene]
remaining lipolytic activity relative to the control (without solvent) [1]: more than 100%

CCCCCCCCCCCCO [1-dodecanol]
remaining lipolytic activity relative to the control (without solvent) [1]: more than 100% | log P [5]: 5

[Ca+2] [Ca^2+]
effect on lipase activity ([6]; 1 and 5 mM ion): stimulated the lipase activity

O=C(O)CN(CCN(CC(=O)O)CC(=O)O)CC(=O)O [EDTA, ethylene diamine tetra-acetic acid]
activation of the lipase ([7]; 1 mM): around 20% | activation of the lipase ([7]; 5 mM): more than 60%

CCCCCCCCCCCCCCCC [1-hexadecane]
remaining lipolytic activity relative to the control (without solvent) [1]: 78%

CCCCn1cc[n+](C)c1.F[P-](F)(F)(F)(F)F [[Bmim][PH6]]
lipase activity relative to the control (without ILs) [4]: up to 120%

CCCCCCCCCCCCCC [n-tetradecane]
remaining lipolytic activity relative to the control (without solvent) [1]: more than 100% | log P [5]: 7

CC(C)CCO [iso-amyl alcohol]
effect on lipase activity/stability [1]: dramatically inhibited | log P [5]: 1.3

CC#N [acetonitrile]
effect on lipase activity/stability [1]: dramatically inhibited | log P [5]: -0.394

Cc1ccccc1C [o-xylene]
remaining lipolytic activity relative to the control (without solvent) [1]: more than 100%

CCCCCCCCCCCCCCCCC [heptadecane]
remaining lipolytic activity relative to the control (without solvent) [1]: more than 100% | log P [5]: 8.69

[Sr+2] [Sr^2+]
effect on lipase activity ([6]; 1 mM ion): stimulated the lipase activity
